Reference: PubChem BioAssay AID1963449 (Molecular Pharmacology Branch, DTP, NCI, 2024)

System: 596521-263-R-J1-PDC complex spheroid growth
Test: Anticancer human tumor 596521-263-R-J1-PDC patient-derived soft tissue sarcoma cell line growth inhibition [Asc]
Conditions: for IC50: curve of first compound; for viability, T/C: stronger effect = lower value
Outline: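 Concentration series start at each agent's clinical Cmax, or at 10 microM when none is established, and drop in half-log steps; agents are applied alone or together to complex spheroids built with HUVEC and hMSC.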

[1] = second compound 0.0316 µM, first compound 0.0316 µM
[2] = second compound 0.0316 µM, first compound 0.1 µM
[3] = second compound 0.0316 µM, first compound 0.316 µM
[4] = second compound 0.0316 µM, first compound 1 µM
[5] = second compound 0.1 µM, first compound 0.0316 µM
[6] = second compound 0.1 µM, first compound 0.1 µM
[7] = second compound 0.1 µM, first compound 0.316 µM
[8] = second compound 0.1 µM, first compound 1 µM
[9] = second compound 0.316 µM, first compound 0.0316 µM
[10] = second compound 0.316 µM, first compound 0.1 µM
[11] = second compound 0.316 µM, first compound 0.316 µM
[12] = second compound 0.316 µM, first compound 1 µM
[13] = second compound 1 µM, first compound 0.0316 µM
[14] = second compound 1 µM, first compound 0.1 µM
[15] = second compound 1 µM, first compound 0.316 µM
[16] = second compound 1 µM, first compound 1 µM
[17] = second compound 3.16 µM, first compound 0.0316 µM
[18] = second compound 3.16 µM, first compound 0.1 µM
[19] = second compound 3.16 µM, first compound 0.316 µM
[20] = second compound 3.16 µM, first compound 1 µM
[21] = second compound 10 µM, first compound 0.0316 µM
[22] = second compound 10 µM, first compound 0.1 µM
[23] = second compound 10 µM, first compound 0.316 µM
[24] = second compound 10 µM, first compound 1 µM
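Note: spheroids exposed to compounds for 7 days.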

C#Cc1c(F)ccc2cc(O)cc(-c3ncc4c(N5CC6CCC(C5)N6)nc(OCC56CCCN5CC(F)C6)nc4c3F)c12 (stereo unspecified) + Cc1c(S(C)(=O)=O)c(-c2cc(F)cc(N3CCN(c4ccc(NS(=O)(=O)c5ccc(NC(CCN6CCC(C(=O)OCCCP(=O)(O)O)CC6)CSc6ccccc6)c(S(=O)(=O)C(F)(F)F)c5)cc4)CC3)c2)c(-c2ccc(Cl)cc2)n1C(C)C
IC50 (second compound 0.0316 µM): > 10 µM | IC50 (second compound 0.1 µM): > 10 µM | IC50 (second compound 0.316 µM): > 10 µM | IC50 (second compound 1 µM): > 10 µM | IC50 (second compound 3.16 µM): > 10 µM | IC50 (second compound 10 µM): 1.68 µM | viability, T/C [1]: 84.7% | viability, T/C [2]: 89.1% | viability, T/C [3]: 91% | viability, T/C [4]: 98.1% | viability, T/C (second compound 0.0316 µM, first compound 3.16 µM): 111% | viability, T/C (second compound 0.0316 µM, first compound 10 µM): 85.7% | viability, T/C [5]: 85.9% | viability, T/C [6]: 107% | viability, T/C [7]: 107% | viability, T/C [8]: 95.5% | viability, T/C (second compound 0.1 µM, first compound 3.16 µM): 95.6% | viability, T/C (second compound 0.1 µM, first compound 10 µM): 87.8% | viability, T/C [9]: 82.2% | viability, T/C [10]: 81.8% | viability, T/C [11]: 76.9% | viability, T/C [12]: 83.6% | viability, T/C (second compound 0.316 µM, first compound 3.16 µM): 100% | viability, T/C (second compound 0.316 µM, first compound 10 µM): 68.4% | viability, T/C [13]: 83.7% | viability, T/C [14]: 84.2% | viability, T/C [15]: 79.1% | viability, T/C [16]: 83.4% | viability, T/C (second compound 1 µM, first compound 3.16 µM): 69.3% | viability, T/C (second compound 1 µM, first compound 10 µM): 60.5% | viability, T/C [17]: 59.4% | viability, T/C [18]: 65.3% | viability, T/C [19]: 61% | viability, T/C [20]: 57.1% | viability, T/C (second compound 3.16 µM, first compound 3.16 µM): 60.4% | viability, T/C (second compound 3.16 µM, first compound 10 µM): 42.6% | viability, T/C [21]: 48.1% | viability, T/C [22]: 47.8% | viability, T/C [23]: 55.1% | viability, T/C [24]: 60.7% | viability, T/C (second compound 10 µM, first compound 3.16 µM): 43.7% | viability, T/C (second compound 10 µM, first compound 10 µM): 37.2%

CNC(C)C(=O)NC1CN(S(=O)(=O)c2cccc(S(=O)(=O)N3CCC4CCC(C(=O)NC(c5ccccc5)c5ccccc5)N4C(=O)C(NC(=O)C(C)NC)C3)c2)CCC2CCC(C(=O)NC(c3ccccc3)c3ccccc3)N2C1=O (stereo unspecified) + Cc1c(S(C)(=O)=O)c(-c2cc(F)cc(N3CCN(c4ccc(NS(=O)(=O)c5ccc(NC(CCN6CCC(C(=O)OCCCP(=O)(O)O)CC6)CSc6ccccc6)c(S(=O)(=O)C(F)(F)F)c5)cc4)CC3)c2)c(-c2ccc(Cl)cc2)n1C(C)C
IC50 (second compound 0.0316 µM): > 1 µM | IC50 (second compound 0.1 µM): > 1 µM | IC50 (second compound 0.316 µM): > 1 µM | IC50 (second compound 1 µM): > 1 µM | IC50 (second compound 3.16 µM): 0.0238 µM | IC50 (second compound 10 µM): < 0.00316 µM | viability, T/C (second compound 0.0316 µM, first compound 0.00316 µM): 84.3% | viability, T/C (second compound 0.0316 µM, first compound 0.01 µM): 97.2% | viability, T/C [1]: 75.4% | viability, T/C [2]: 84.7% | viability, T/C [3]: 89.2% | viability, T/C [4]: 75.2% | viability, T/C (second compound 0.1 µM, first compound 0.00316 µM): 86.1% | viability, T/C (second compound 0.1 µM, first compound 0.01 µM): 82.5% | viability, T/C [5]: 82.1% | viability, T/C [6]: 83% | viability, T/C [7]: 71.9% | viability, T/C [8]: 69.1% | viability, T/C (second compound 0.316 µM, first compound 0.00316 µM): 91.8% | viability, T/C (second compound 0.316 µM, first compound 0.01 µM): 89.7% | viability, T/C [9]: 70.2% | viability, T/C [10]: 70.1% | viability, T/C [11]: 70.9% | viability, T/C [12]: 56.1% | viability, T/C (second compound 1 µM, first compound 0.00316 µM): 74.3% | viability, T/C (second compound 1 µM, first compound 0.01 µM): 63.5% | viability, T/C [13]: 63.9% | viability, T/C [14]: 64.3% | viability, T/C [15]: 59.4% | viability, T/C [16]: 49.5% | viability, T/C (second compound 3.16 µM, first compound 0.00316 µM): 54.1% | viability, T/C (second compound 3.16 µM, first compound 0.01 µM): 54% | viability, T/C [17]: 51.8% | viability, T/C [18]: 42.4% | viability, T/C [19]: 35.6% | viability, T/C [20]: 32.3% | viability, T/C (second compound 10 µM, first compound 0.00316 µM): 44.1% | viability, T/C (second compound 10 µM, first compound 0.01 µM): 38.6% | viability, T/C [21]: 37.1% | viability, T/C [22]: 34.2% | viability, T/C [23]: 27% | viability, T/C [24]: 20.8%

Cc1nc(N2CCC3(CC2)COC(C)C3N)c(CO)nc1Sc1ccnc(N)c1Cl (stereo unspecified) + Cc1c(S(C)(=O)=O)c(-c2cc(F)cc(N3CCN(c4ccc(NS(=O)(=O)c5ccc(NC(CCN6CCC(C(=O)OCCCP(=O)(O)O)CC6)CSc6ccccc6)c(S(=O)(=O)C(F)(F)F)c5)cc4)CC3)c2)c(-c2ccc(Cl)cc2)n1C(C)C
IC50 (second compound 0.0316 µM): > 3 µM | IC50 (second compound 0.1 µM): > 3 µM | IC50 (second compound 0.316 µM): > 3 µM | IC50 (second compound 1 µM): 2.02 µM | IC50 (second compound 3.16 µM): 0.443 µM | IC50 (second compound 10 µM): 0.0977 µM | viability, T/C (second compound 0.0316 µM, first compound 0.00949 µM): 85.5% | viability, T/C (second compound 0.0316 µM, first compound 0.03 µM): 99.6% | viability, T/C (second compound 0.0316 µM, first compound 0.0949 µM): 77.5% | viability, T/C (second compound 0.0316 µM, first compound 0.3 µM): 89% | viability, T/C (second compound 0.0316 µM, first compound 0.949 µM): 82.9% | viability, T/C (second compound 0.0316 µM, first compound 3 µM): 61.9% | viability, T/C (second compound 0.1 µM, first compound 0.00949 µM): 87.8% | viability, T/C (second compound 0.1 µM, first compound 0.03 µM): 100% | viability, T/C (second compound 0.1 µM, first compound 0.0949 µM): 87.2% | viability, T/C (second compound 0.1 µM, first compound 0.3 µM): 93.7% | viability, T/C (second compound 0.1 µM, first compound 0.949 µM): 84.6% | viability, T/C (second compound 0.1 µM, first compound 3 µM): 59.5% | viability, T/C (second compound 0.316 µM, first compound 0.00949 µM): 86.4% | viability, T/C (second compound 0.316 µM, first compound 0.03 µM): 93.7% | viability, T/C (second compound 0.316 µM, first compound 0.0949 µM): 87.2% | viability, T/C (second compound 0.316 µM, first compound 0.3 µM): 81.4% | viability, T/C (second compound 0.316 µM, first compound 0.949 µM): 68.9% | viability, T/C (second compound 0.316 µM, first compound 3 µM): 59.7% | viability, T/C (second compound 1 µM, first compound 0.00949 µM): 90.6% | viability, T/C (second compound 1 µM, first compound 0.03 µM): 85% | viability, T/C (second compound 1 µM, first compound 0.0949 µM): 73.4% | viability, T/C (second compound 1 µM, first compound 0.3 µM): 76.7% | viability, T/C (second compound 1 µM, first compound 0.949 µM): 64.5% | viability, T/C (second compound 1 µM, first compound 3 µM): 42.1% | viability, T/C (second compound 3.16 µM, first compound 0.00949 µM): 62.6% | viability, T/C (second compound 3.16 µM, first compound 0.03 µM): 63.2% | viability, T/C (second compound 3.16 µM, first compound 0.0949 µM): 57.4% | viability, T/C (second compound 3.16 µM, first compound 0.3 µM): 50% | viability, T/C (second compound 3.16 µM, first compound 0.949 µM): 47.3% | viability, T/C (second compound 3.16 µM, first compound 3 µM): 36.5% | viability, T/C (second compound 10 µM, first compound 0.00949 µM): 48.5% | viability, T/C (second compound 10 µM, first compound 0.03 µM): 54.4% | viability, T/C (second compound 10 µM, first compound 0.0949 µM): 52.2% | viability, T/C (second compound 10 µM, first compound 0.3 µM): 42.6% | viability, T/C (second compound 10 µM, first compound 0.949 µM): 36% | viability, T/C (second compound 10 µM, first compound 3 µM): 28.2%
